Laboratory results: patent US20240215873A1, “Aptamer Sensors with Temperature Correction” (University of Cincinnati, priority 2021, published 2024)

Settings: room temperature; saturated concentration of target analyte; 20 mM tris buffer
Description: The sensors were all interrogated in 20 mM tris buffer (20 mM trizma base, 100 mM NaCl and 5 mM MgCl2). FIG. 5 illustrates the equilibration of a sensor response with or without the presence of analyte target such as ATP, Tobramycin, or Cocaine.
The aptamers were equilibrated, interrogated, and regenerated in tris buffer at 1° C., 22° C. and 37° C. […] The performance of each E-AB sensor was characterized to determine their expected response in room temperature (RT).
To fabricate the E-AB sensors, the 2 mm diameter gold disk macro electrodes (CH Instruments, Austin, TX) were hand polished for 2 min in a 1 μm diamond slurry (Buehler, Lake Bluff, IL) followed by polishing for 2 min in 0.05 μm alumina oxide slurry (Buehler, Lake Bluff, IL). All electrodes were rinsed with ultrapure water (Milli-Q Ultrapure Water Purification, Millipore, Billerica, MA, U.S.A.). To remove particulates, the electrodes were sonicated in a low power sonicator for 5 min. Next, the electrodes were electrochemically cleaned in various concentrations of sodium hydroxide and sulfuric acid solutions. Sensor fabrication consists of numerous steps of incubation. First, 2 uL of 100 mM TCEP was added to 1 μL of aptamer and left to incubate for 1 h to perform a disulfide bond reaction. […]

**Q.** Which “percent signal change (increase in current)” value does the source give for cocaine here?
**A.** 56%
